Tests used:
[1] = system: C3H mice (conversion from telogen to anagen, skin color grade); experiment: Telogen Conversion Assay; format: in vivo; details: topical; for Average Grades, 23 Days: visual skin color grade 0 (whitish) to 4 (dark blue, full anagen), average of 7 mice after 23 days
Protocol: PGF's are tested for their potential to grow hair using the Telogen Conversion Assay. The Telogen Conversion Assay measures the potential of a PGF to convert mice in the resting stage of the hair growth cycle (“telogen”), to the growth stage of the hair growth cycle (“anagen”).
Without intending to be limited by theory, there are three principal phases of the hair growth cycle: anagen, catagen, and telogen. It is believed that there is a longer telogen period in C3H mice (Harlan Sprague Dawley, Inc., Indianapolis, Ind.) from approximately 40 days of age until about 75 days of age, when hair growth is synchronized. It is believed that after 75 days of age, hair growth is no longer synchronized. Wherein about 40 day-old mice with dark fur (brown or black) are used in hair growth experiments, melanogenesis occurs along with hair (fur) growth wherein the topical application of hair growth inducers are evaluated. The Telogen Conversion Assay herein is used to screen PGF's for potential hair growth by measuring melanogenesis.
Three groups of 44 day-old C3H mice are used: a vehicle control group, a positive control group, and a test PGF group, wherein the test PGF group is administered a PGF used in the method of this invention. The length of the assay is 24 days with 15 treatment days (wherein the treatment days occur Mondays through Fridays). Day 1 is the first day of treatment. Typical dosage concentrations are set forth in Table 1, however the skilled artisan will readily understand that such concentrations may be modified.
The mice are treated topically Monday through Friday on their lower back (base of tail to the lower rib). A pipettor and tip are used to deliver 400 μL to each mouse's back. The 400 μL application is applied slowly while moving hair on the mouse to allow the application to reach the skin.
While each treatment is being applied to the mouse topically, a visual grade of from 0 to 4 will be given to the skin color in the application area of each animal. As a mouse converts from telogen to anagen, its skin color will become more bluish-black.

[2] = target: T1, hFP receptor (hFP membrane from transfected COS-7 cells) (Homo sapiens, UniProt P43088); experiment: Radioligand Binding Assay; details: competition with (3H) PGF2 on hFP membrane; read-out: IC50 the PGF
T1 construct: expressed in transfected cells; host or cells: COS-7 cells (transient transfection, LipofectAMINE); membrane preparation
T1 sequence (P43088 whole entry): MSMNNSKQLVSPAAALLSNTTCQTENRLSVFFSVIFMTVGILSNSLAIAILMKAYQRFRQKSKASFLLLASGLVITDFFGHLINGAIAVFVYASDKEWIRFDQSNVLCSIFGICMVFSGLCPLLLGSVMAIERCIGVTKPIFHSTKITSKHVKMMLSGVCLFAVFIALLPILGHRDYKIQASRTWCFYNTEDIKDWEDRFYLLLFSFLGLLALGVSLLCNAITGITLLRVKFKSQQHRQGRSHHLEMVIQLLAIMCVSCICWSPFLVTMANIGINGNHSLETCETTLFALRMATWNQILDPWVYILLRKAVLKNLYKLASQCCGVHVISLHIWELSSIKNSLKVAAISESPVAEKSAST
Protocol: IC50 of a PGF can be determined relative to PGF2α using the Radioligand Binding Assay. As a control, the IC50 for PGF2α itself should be no lower than 1.0 nM and no higher than 5.0 nM.
In this assay, COS-7 cells are transiently transfected with the hFP recombinant plasmid using LipofectAMINE Reagent. Forty-eight hours later, the transfected cells are washed with Hank's Balanced Salt Solution (HBSS, without CaCl2, MgCl2, MgSO4, or phenol red). The cells are detached with versene, and HBSS is added. The mixture is centrifuged at 200 g for 10 minutes, at 4° C. to pellet the cells. The pellet is resuspended in Phosphate-Buffered Saline-EDTA buffer (PBS; 1 mM EDTA; pH 7.4; 4° C.). The cells are disrupted by nitrogen cavitation (Parr model 4639), at 800 psi, for 15 minutes at 4° C. The mixture is centrifuged at 1000 g for 10 minutes at 4° C. The supernatant is centrifuged at 100,000 g for 60 minutes at 4° C. The pellet is resuspended to 1 mg protein/mL TME buffer (50 mM Tris; 10 mM MgCl2; 1 mM EDTA; pH 6.0; 4° C.) based on protein levels measured using the Pierce BCA Protein Assay kit. The homogenate is mixed for 10 seconds using a Kinematica POLYTRON® (available from KINEMATICA AG, Luzernerstrasse 147A CH-6014 Littau, Switzerland). The membrane preparations are then stored at −80° C., until thawed for assay use.
The receptor competition binding assays are developed in a 96 well format. Each well contains […] of hFP membrane, 5 nM (3H) PGF2, and the various competing compounds in a total volume of […]. The plates are incubated at 23° C. for 1 hour. The incubation is terminated by rapid filtration using the Packard Filtermate 196 harvester through Packard UNIFILTER® GF/B filters (available from Packard Instrument Co., Inc. of Downers Grove Ill.) pre-wetted with TME buffer. The filter is washed four times with TME buffer. […] The plates are read on a Packard TOPCOUNT® Microplate Scintillation Counter (also available from Packard Instrument Co., Inc.)

## CC(C)OC(=O)CCCCCC[C@@H]1[C@@H](CCC(O)CSc2ccccc2)[C@H](O)C[C@@H]1O (stereo partly drawn) [Example 1]
[1]
  hair growth (result in words): grew hair
  Average Grades, 23 Days: 0.4
[1]; visual skin color grade 0 to 4, average of 7 mice after 25 days
  Average Grades, 25 Days: 0.1
[1]; visual skin color grade 0 to 4, average of 7 mice after 26 days
  Average Grades, 26 Days: 0.7

## COC(=O)CCCCCC[C@@H]1[C@@H](CCC(O)CSc2ccccc2Br)[C@H](O)C[C@@H]1O (stereo partly drawn) [Example 2]
[1]
  hair growth (result in words): grew hair
  Average Grades, 23 Days: 0.1

## O=C(O)CCCCCC[C@@H]1[C@@H](CCC(O)CSc2cccc(F)c2)[C@H](O)C[C@@H]1O (stereo partly drawn) [Example 3-1]
[2]
  IC50: 7 nM

## O=C(O)CCCCCC[C@@H]1[C@@H](CCC(O)CSc2ccccc2F)[C@H](O)C[C@@H]1O (stereo partly drawn) [Example 3-2]
[2]
  IC50: 10 nM

## CC(O)(CC[C@@H]1[C@@H](CCCCCCC(=O)O)[C@@H](O)C[C@H]1O)CSc1ccccc1 (stereo partly drawn) [Example 3-3]
[2]
  IC50: 24 nM

— patent US8618086B2, “Compositions and methods for treating hair loss using C16-C20 aromatic tetrahydro prostaglandins” (Duke University, priority 2000, dated 2013)
